Measurements as given in US20250223259A1, “PROTEASE INHIBITORS FOR TREATING OR PREVENTING CORONAVIRUS INFECTION” (Merck Sharp & Dohme LLC, priority 2022, published 2025).

These molecules were tested against SARS2 coronavirus 3CL protease (Severe acute respiratory syndrome coronavirus 2 (2019-nCoV) (SARS-CoV-2), UniProt P0DTD1) (assay: SARS2 Coronavirus 3CL Protease Assay (FRET)). Details: SARS2 3CLPro FRET assay; 5 nM enzyme, 30 min pre-incubation with compound, 15 uM peptide substrate, 4 h room temperature.
Type: biochemical
Protocol: The enzymatic activity of SARS2 coronavirus 3CL protease was determined in a FRET (fluorescence resonance energy transfer)-based assay measuring the cleavage of a peptide substrate by recombinantly expressed and purified enzyme. Cleavage of the peptide SEQ ID NO:1 (CPC Scientific) by SARS2 3CL protease was measured in reaction buffer (50 mM Hepes pH 7.5, 0.01% Triton X-100, 0.01% BSA, 2 mM DTT). SARS2 3CL protease (5 nM final concentration) was pre-incubated with compound for 30 minutes before reaction initiation with peptide substrate (15 uM final concentration). Room temperature reactions (4 h) were quenched by addition of a high dose of inhibitor and read on an appropriate plate reader (excitation wavelength=495 nm, emission wavelength=520 nm). Data were analyzed by a standard 4 parameter fit to determine IC50 values.

SMILES | IC50
COC(=O)N[C@H](C(=O)N1CC(C)(C)CCC1C(=O)N[C@@H](CCC(C)(F)F)C(=O)C(=O)NC1CC1)C(C)(C)C (single isomer, unassigned) [Example 52, Methyl ((S)-1-(R or S)-2-(((S)-1-(cyclopropylamino)-6,6-difluoro-1,2-dioxoheptan-3-yl)carbamoyl)-5,5-dimethylpiperidin-1-yl)-3,3-dimethyl-1-oxobutan-2-yl)carbamate] | 144 nM
COC(=O)N[C@H](C(=O)N1CC2(CCCCC2)C[C@H]1C(=O)N[C@@H](CCC(C)(F)F)C(=O)C(=O)NC1CCCCC1)C(C)(C)C [Example 16, Methyl ((S)-1-((S)-3-(((S)-1-(cyclohexylamino)-6,6-difluoro-1,2-dioxoheptan-3-yl)carbamoyl)-2-azaspiro[4.5]decan-2-yl)-3,3-dimethyl-1-oxobutan-2-yl)carbamate] | 136 nM
CC(F)(F)CC[C@H](NC(=O)[C@@H]1CC2(CCCCC2)CN1C(=O)[C@@H](NC(=O)OC1CCCC1)C(C)(C)C)C(=O)C(=O)NC1CC1 [Example 5, Cyclopentyl ((S)-1-((S)-3-(((S)-1-(cyclopropylamino)-6,6-difluoro-1,2-dioxoheptan-3-yl)carbamoyl)-2-azaspiro[4.5]decan-2-yl)-3,3-dimethyl-1-oxobutan-2-yl)carbamate] | 81 nM
CNC(=O)C(=O)[C@H](CCC(C)(F)F)NC(=O)[C@@H]1[C@@H]2[C@H](CN1C(=O)[C@@H](NC(=O)OC)C(C)(C)C)C2(C)C [Example 39, Methyl ((S)-1-((1R,2S,5S)-2-(((S)-6,6-difluoro-1-(methylamino)-1,2-dioxoheptan-3-yl)carbamoyl)-6,6-dimethyl-3-azabicyclo[3.1.0]hexan-3-yl)-3,3-dimethyl-1-oxobutan-2-yl)carbamate] | 12 nM
CCC1CCN(C(=O)[C@@H](NC(=O)OC)C(C)(C)C)C1C(=O)N[C@@H](CCC(C)(F)F)C(=O)C(=O)NC1CC1 (single isomer, unassigned) [Example 72, Methyl ((S)-1-((2(R or S),3(R or S))-2-(((S)-1-(cyclopropylamino)-6,6-difluoro-1,2-dioxoheptan-3-yl)carbamoyl)-3-ethylpyrrolidin-1-yl)-3,3-dimethyl-1-oxobutan-2-yl)carbamate] | 48 nM
CNC(=O)C(=O)[C@H](CCC(C)(F)F)NC(=O)C1C(C2CC2C)CCN1C(=O)[C@@H](NC(=O)OC)C(C)(C)C (single isomer, unassigned) [Example 107, methyl ((S)-1-((2(S or R),3(S or R))-2-(((S)-6,6-difluoro-1-(methylamino)-1,2-dioxoheptan-3-yl)carbamoyl)-3-((1(S or R),2(R or S))-2-methylcyclopropyl)pyrrolidin-1-yl)-3,3-dimethyl-1-oxobutan-2-yl)carbamate] | 14 nM
COC(=O)N[C@H](C(=O)N1CC2(CCCCC2)C[C@H]1C(=O)N[C@@H](CCC(C)(F)F)C(=O)C(=O)NCC(C)C)C(C)(C)C [Example 9, Methyl ((S)-1-((S)-3-(((S)-6,6-difluoro-1-(isobutylamino)-1,2-dioxoheptan-3-yl)carbamoyl)-2-azaspiro[4.5]decan-2-yl)-3,3-dimethyl-1-oxobutan-2-yl)carbamate] | 21 nM
COC(=O)N[C@H](C(=O)N1CC2(CCCCC2)C[C@H]1C(=O)N[C@@H](CCC(C)(F)F)C(=O)C(=O)NCc1ccccc1)C(C)(C)C [Example 7, Methyl ((S)-1-((S)-3-(((S)-1-(benzylamino)-6,6-difluoro-1,2-dioxoheptan-3-yl)carbamoyl)-2-azaspiro[4.5]decan-2-yl)-3,3-dimethyl-1-oxobutan-2-yl)carbamate] | 11 nM
COC(=O)N[C@H](C(=O)N1C[C@H]2[C@@H]([C@H]1C(=O)N[C@@H](CCC(C)(F)F)C(=O)C(=O)NC1CC1)C2(F)F)C(C)(C)C [Example 111, methyl ((S)-1-((1S,2S,5R)-2-(((S)-1-(cyclopropylamino)-6,6-difluoro-1,2-dioxoheptan-3-yl)carbamoyl)-6,6-difluoro-3-azabicyclo[3.1.0]hexan-3-yl)-3,3-dimethyl-1-oxobutan-2-yl)carbamate] | 88 nM
COC(=O)N[C@H](C(=O)N1CC(C2COC2)C[C@H]1C(=O)N[C@@H](CCC(C)(F)F)C(=O)C(=O)NC1CC1)C(C)(C)C (single isomer, unassigned) [Example 57, Methyl ((S)-1-((2S, 4(R or S))-2-(((S)-1-(cyclopropylamino)-6,6-difluoro-1,2-dioxoheptan-3-yl)carbamoyl)-4-(oxetan-3-yl)pyrrolidin-1-yl)-3,3-dimethyl-1-oxobutan-2-yl)carbamate] | 305 nM
COC(=O)N[C@H](C(=O)N1CC2CCC(C1C(=O)N[C@@H](CCC(C)(F)F)C(=O)C(=O)NC1CC1)C2(F)F)C(C)(C)C (single isomer, unassigned) [Example 99, methyl ((S)-1-((1(S or R),2(S or R),5(R or S))-2-(((S)-1-(cyclopropylamino)-6,6-difluoro-1,2-dioxoheptan-3-yl)carbamoyl)-8,8-difluoro-3-azabicyclo[3.2.1]octan-3-yl)-3,3-dimethyl-1-oxobutan-2-yl)carbamate] | 100 nM
CNC(=O)C(=O)[C@H](CCC(C)(F)F)NC(=O)[C@@H]1CC2(CCCCC2)CN1C(=O)[C@@H](NC(=O)OC)C(C)(C)C [Example 62, Methyl ((S)-1-((S)-3-(((S)-6,6-difluoro-1-(methylamino)-1,2-dioxoheptan-3-yl)carbamoyl)-2-azaspiro[4.5]decan-2-yl)-3,3-dimethyl-1-oxobutan-2-yl)carbamate] | 8.8 nM
CNC(=O)C(=O)[C@H](CCC(C)(F)F)NC(=O)[C@@H]1[C@@H]2CC[C@@H](C2)CN1C(=O)[C@@H](NC(=O)OC)C(C)(C)C [Example 89, methyl ((S)-1-((1R,2S,5S)-2-(((S)-6,6-difluoro-1-(methylamino)-1,2-dioxoheptan-3-yl)carbamoyl)-3-azabicyclo[3.2.1]octan-3-yl)-3,3-dimethyl-1-oxobutan-2-yl)carbamate] | 13 nM
COC(=O)N[C@H](C(=O)N1CC(C23CC(C2)C3)C[C@H]1C(=O)N[C@@H](CCC(C)(F)F)C(=O)C(=O)NC1CC1)C(C)(C)C (single isomer, unassigned) [Example 2, Methyl ((S)-1-((2S,4(R or S))-4-(bicyclo[1.1.1]pentan-1-yl)-2-(((S)-1-(cyclopropylamino)-6,6-difluoro-1,2-dioxoheptan-3-yl)carbamoyl)pyrrolidin-1-yl)-3,3-dimethyl-1-oxobutan-2-yl)carbamate] | 29 nM
COCC(NC(=O)OC)C(=O)N1CC2(CCCCC2)C[C@H]1C(=O)N[C@@H](CCC(C)(F)F)C(=O)C(=O)NC1CC1 (single isomer, unassigned) [Example 11, Methyl ((R or S)-1-((S)-3-(((S)-1-(cyclopropylamino)-6,6-difluoro-1,2-dioxoheptan-3-yl)carbamoyl)-2-azaspiro[4.5]decan-2-yl)-3-methoxy-1-oxopropan-2-yl)carbamate] | 40 nM
COC(=O)N[C@H](C(=O)N1CCC(C(F)F)CC1C(=O)N[C@@H](CCC(C)(F)F)C(=O)C(=O)NC1CC1)C(C)(C)C (single isomer, unassigned) [Example 108, methyl ((S)-1-((2(S or R),4(R or S)-2-(((S)-1-(cyclopropylamino)-6,6-difluoro-1,2-dioxoheptan-3-yl)carbamoyl)-4-(difluoromethyl)piperidin-1-yl)-3,3-dimethyl-1-oxobutan-2-yl)carbamate] | 22 nM
COC(=O)N[C@H](C(=O)N1CC[C@@H](C(F)(F)F)C[C@H]1C(=O)N[C@@H](CCC(C)(F)F)C(=O)C(=O)NC1CC1)c1ccccc1 [Example 65, Methyl ((S)-2-((2S,4R)-2-(((S)-1-(cyclopropylamino)-6,6-difluoro-1,2-dioxoheptan-3-yl)carbamoyl)-4-(trifluoromethyl)piperidin-1-yl)-2-oxo-1-phenylethyl)carbamate] | 24 nM
COC(=O)N[C@H](C(=O)N1C[C@H]2[C@@H]([C@H]1C(=O)N[C@@H](CCC(C)(F)F)C(=O)C(=O)NC1CC1)C2(C)C)C(C)(C)C [Example 6, Methyl ((S)-1-((1R,2S,5S)-2-(((S)-1-(cyclopropylamino)-6,6-difluoro-1,2-dioxoheptan-3-yl)carbamoyl)-6,6-dimethyl-3-azabicyclo[3.1.0]hexan-3-yl)-3,3-dimethyl-1-oxobutan-2-yl)carbamate] | 17 nM
